From the supplement of paper PMC13380429

What was measured:
Settings in all cases: 72 h
Vero E6 [1] = test: relative viability EC50 (midpoint between 100% and the lowest measured viability); higher = less toxic
Caco-2 [2] = test: as above
Calu-3 [3] = test: as above
U2OS [4] = test: as above
HepG2 [5] = test: as above
Vero E6 [6] = test: cell viability relative to DMSO; higher = less toxic
Caco-2 [7] = test: as above
Calu-3 [8] = test: as above
U2OS [9] = test: as above
HepG2 [10] = test: as above
Vero E6 [11] = test: drug sensitivity score (DSS) for viability; higher = more toxic; extreme values may be limits of the assay
Caco-2 [12] = test: as above
Calu-3 [13] = test: as above
U2OS [14] = test: as above
HepG2 [15] = test: as above

Row | Compound | relative viability EC50 (Vero E6 [1]) [µM] | relative viability EC50 (Caco-2 [2]) [µM] | relative viability EC50 (Calu-3 [3]) [µM] | relative viability EC50 (U2OS [4]) [µM] | relative viability EC50 (HepG2 [5]) [µM] | cell viability (Vero E6 [6]; 1 nM) [%] | cell viability (Vero E6 [6]; 10 nM) [%] | cell viability (Vero E6 [6]; 100 nM) [%] | cell viability (Vero E6 [6]; 1000 nM) [%] | cell viability (Vero E6 [6]; 10000 nM) [%] | cell viability (Caco-2 [7]; 1 nM) [%] | cell viability (Caco-2 [7]; 10 nM) [%] | cell viability (Caco-2 [7]; 100 nM) [%] | cell viability (Caco-2 [7]; 1000 nM) [%] | cell viability (Caco-2 [7]; 10000 nM) [%] | cell viability (Calu-3 [8]; 1 nM) [%] | cell viability (Calu-3 [8]; 10 nM) [%] | cell viability (Calu-3 [8]; 100 nM) [%] | cell viability (Calu-3 [8]; 1000 nM) [%] | cell viability (Calu-3 [8]; 10000 nM) [%] | cell viability (U2OS [9]; 1 nM) [%] | cell viability (U2OS [9]; 10 nM) [%] | cell viability (U2OS [9]; 100 nM) [%] | cell viability (U2OS [9]; 1000 nM) [%] | cell viability (U2OS [9]; 10000 nM) [%] | cell viability (HepG2 [10]; 1 nM) [%] | cell viability (HepG2 [10]; 10 nM) [%] | cell viability (HepG2 [10]; 100 nM) [%] | cell viability (HepG2 [10]; 1000 nM) [%] | cell viability (HepG2 [10]; 10000 nM) [%] | drug sensitivity score (Vero E6 [11]) | drug sensitivity score (Caco-2 [12]) | drug sensitivity score (Calu-3 [13]) | drug sensitivity score (U2OS [14]) | drug sensitivity score (HepG2 [15])
1 | CS(=O)(=O)n1cc2c(n1)CN([C@H]1CO[C@H](c3cc(F)ccc3F)[C@@H](N)C1)C2 [omarigliptin] | > 10 | > 10 | > 10 | > 10 | > 10 | 97.8 | 103 | 95.5 | 98.7 | 103 | 92.5 | 101 | 95.4 | 97.5 | 106 | 98.4 | 97.7 | 88.4 | 108 | 100 | 97.8 | 96.8 | 94.2 | 101 | 104 | 103 | 106 | 101 | 99.7 | 103 | 0 | 0 | 0 | 0 | 0
2 | CC(C)c1ccc(C(=O)N=C(N)N)cc1S(C)(=O)=O [cariporide] | > 10 | > 10 | > 10 | > 10 | > 10 | 102 | 101 | 106 | 108 | 92.3 | 109 | 107 | 102 | 89.7 | 107 | 102 | 96.7 | 93.6 | 96.3 | 106 | 100 | 98.2 | 100 | 96.1 | 97 | 102 | 84.4 | 89.7 | 98 | 95.6 | 0 | 0 | 0 | 0 | 0
3 | CC(C)(C)c1ccc(S(=O)(=O)Nc2ccc(Cl)cc2C(=O)c2cc[n+]([O-])cc2)cc1 [vercirnon] | > 10 | > 10 | > 10 | > 10 | > 10 | 98.2 | 97.4 | 94.7 | 95.6 | 106 | 89.6 | 97.4 | 87.4 | 110 | 100 | 95.4 | 99.9 | 99.7 | 93 | 96.3 | 97.7 | 97.5 | 97.1 | 104 | 104 | 93.4 | 93.7 | 104 | 106 | 89.4 | 0 | 0 | 0 | 0 | 0
4 | CCS(=O)(=O)CCn1c([N+](=O)[O-])cnc1C [tinidazole] | > 10 | > 10 | > 10 | > 10 | > 10 | 100 | 102 | 91.7 | 97.6 | 106 | 104 | 77.8 | 99 | 108 | 93.1 | 95.2 | 96.6 | 98.4 | 98.2 | 99.9 | 96.3 | 94.8 | 97.1 | 92 | 98.3 | 94.1 | 109 | 85.5 | 118 | 86.8 | 0 | 0 | 0 | 0 | 0
5 | C[C@@H]1C[C@H]2[C@@H]3C[C@H](F)C4=CC(=O)C=C[C@]4(C)[C@@]3(F)[C@@H](O)C[C@]2(C)[C@@]1(O)C(=O)COC(=O)C(C)(C)C [flumethasone-pivalate] | > 10 | > 10 | > 10 | > 10 | > 10 | 96.6 | 95.3 | 101 | 96.3 | 84.5 | 121 | 103 | 122 | 94.9 | 89 | 113 | 102 | 106 | 94.3 | 100 | 106 | 102 | 102 | 97.6 | 101 | 82.4 | 100 | 87.4 | 103 | 82.6 | 0.6 | 0.1 | 0 | 0 | 0.3
6 | CC(C)=CCC[C@]1(C)C=Cc2c(O)c3c(c(CC=C(C)C)c2O1)O[C@]12C(=C[C@@H]4C[C@H]1C(C)(C)O[C@@]2(C/C=C(/C)C(=O)O)C4=O)C3=O [gambogic-acid] | 0.4 | 0.288 | 0.404 | 0.269 | 0.51 | 105 | 104 | 106 | 6 | -0.3 | 90.7 | 102 | 94.9 | 1.9 | -0.1 | 100 | 138 | 111 | 4.7 | -0.3 | 98.8 | 102 | 94 | -0.1 | -0.3 | 97.6 | 93.6 | 99.3 | 15.6 | -0.4 | 16.7 | 18.5 | 16.6 | 18.8 | 15.4
7 | CN=c1nc(-c2ccccc2)n(-c2ccccc2)s1 | > 10 | > 10 | > 10 | > 10 | > 10 | 97.8 | 99.3 | 96.7 | 101 | 87.9 | 97.2 | 105 | 97 | 97.7 | 89 | 110 | 101 | 95.8 | 89.9 | 96 | 95.5 | 98.1 | 93.4 | 96.9 | 93.8 | 98.4 | 99.8 | 98 | 92.2 | 95.7 | 0 | 0 | 0 | 0 | 0
